“And” between values parts separate entries of the source, which are not always exact repeats. Identical values can stand only once.
Key:
[1] = target: T1, endogenous P2X4 channels (Homo sapiens, UniProt Q99571); assay: Human Monocyte P2X4 Assay (FLIPR); type: cell-based; conditions: primary human monocytes, 3 μM BzATP, one value per donor; for IC50: read-out: Human P2X4 Monocytes (FLIPR Assay) IC50 for different donors; for Emax: read-out: Human P2X4 Monocytes (FLIPR Assay) Efficacy for different donors
T1 construct: measure calcium influx through endogenous P2X4 channels into primary human monocytes; endogenous in cells; host or cells: primary human monocytes isolated from donor PBMCs
T1 sequence (Q99571 1-388): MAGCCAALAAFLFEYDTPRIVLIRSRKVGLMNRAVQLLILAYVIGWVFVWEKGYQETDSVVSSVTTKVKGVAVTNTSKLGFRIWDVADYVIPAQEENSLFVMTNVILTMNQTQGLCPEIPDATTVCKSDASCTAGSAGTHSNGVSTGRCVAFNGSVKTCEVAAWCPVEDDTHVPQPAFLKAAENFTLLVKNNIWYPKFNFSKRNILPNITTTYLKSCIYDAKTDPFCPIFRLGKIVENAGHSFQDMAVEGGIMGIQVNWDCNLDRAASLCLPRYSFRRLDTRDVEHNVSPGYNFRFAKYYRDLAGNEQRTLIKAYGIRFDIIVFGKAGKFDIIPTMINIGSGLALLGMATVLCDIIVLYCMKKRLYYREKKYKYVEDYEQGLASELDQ
Protocol: The principle of the assay is to measure calcium influx through endogenous P2X4 channels into primary human monocytes, following activation by 2′,3′-O-(4-benzoyl-benzoyl)-ATP (Bz-ATP). Intracellular calcium concentration changes were measured with a Flipr™ (Molecular Devices) device using a calcium sensitive dye (Fluo-8). In primary monocytes P2X4 is located at the lysosome membrane, therefore exocytosis has to be triggered to expose P2X4 at the cellular membrane.
Human peripheral blood mononuclear cells (PBMCs) from anticoagulated blood (blood cells, BC) were isolated via density gradient centrifugation. Whole blood was diluted 1:3 with PBS. Samples of 30 mL were layered carefully on top of 15 mL Biocoll (BIOCHROM) in 50 mL centrifuge tubes (Falcon). Tubes were centrifuged at 914×g for 25 min at RT without brake. The PBMC layer was removed with a 10 mL pipette and transferred into tubes with ice-cold PBS in a total volume of 50 mL. Cells were washed twice by pelleting at 300×g at 4° C., for 10 min and for 5 min respectively. PBMCs were re-suspended in 10 mL medium (X-vivo, Biozym Scientific) and counted in a Neubauer chamber.
Monocytes were isolated by negative selection using the Monocyte isolation kit II from Miltenyi (#130-091-153) according to the instructions. Isolation should be done fast and cells and solutions should be kept on ice at any time. PBMCs in batches of 10exp8 cells were pelleted (300×g, 10 min) and re-suspended with 300 μL MACS buffer in a 50 mL Falcon tube. FcR Blocking reagent (100 μl) and Biotin-Ab (100 μl) were added, mixed and incubated on ice for 10 min. MACS buffer (300 μL) and anti-Biotin Micro-beads (100 μL) were added, mixed and incubated on ice for 15 min. Cells were washed by pelleting (300×g for 10 min) and re-suspended in 500 μL MACS buffer. For each batch one separation column was placed in the MACS separator and rinsed with 3 mL MACS buffer. The cell suspension was added to the column, followed by 3×3 mL MACS buffer for washing, and the eluent containing the monocytes was collected. Cells were pelleted (300×g for 10 min), re-suspended in X-vivo medium and counted. Monocytes were seeded into fibronectin-coated micro-plates (384-well, black, flat transparent bottom; Corning #3848) at a density of 30,000 cells/well in 50 μL, and cultivated over night (37° C., 5% CO2).
Test substances were dissolved in 100% DMSO at a stock concentration of 10 mM and stored at −20° C. in aliquots. Serial dilutions (2×) were prepared in DMSO and diluted 500× with assay buffer to generate the antagonist plate. In the Flipr measurement, 10 μL per well were transferred (4× dilution) and a final top concentrations of 5 μM and 0.05% DMSO were obtained in the assay. Agonist BzATP was stored at 10 mM in aliquots and diluted to an intermediate concentration of 15 μM to generate the agonist plate. In the Flipr measurement, 10 μL per well were transferred (5× dilution) so that a final assay concentration of 3 μM was obtained.
For the experiment, the medium of the cell plate was discarded manually and 70 μL/well loading buffer was added and incubated for 1 h (37° C., 5% CO2). Loading buffer contained HBSS (w/o calcium/magnesium), 10 mM Hepes pH 7.4, 5 μM Fluo-8 (AM) (Tebu-bio) and 50 mM methylamine (Sigma) to trigger exocytosis. Loading buffer was discarded manually and 30 μL/well low-calcium assay buffer (5 mM KCl, 145 mM NaCl, 0.5 mM CaCl2), 13 mM glucose, 10 mM Hepes pH 7.4) was added. The antagonist plate was transferred (10 μL/well) and after 15 min at RT the agonist plate (10 μL/well) was transferred.
Agonist addition was recorded for 240 seconds after a 10 second baseline. For analysis, a baseline correction was applied, and the maximum of the curve was extracted. Data were normalized towards 0% inhibition (signal at 3 μM BzATP) and 100% inhibition (absence of BzATP stimulation) and fitted with a four-parameter sigmoidal inhibition curve using Prism Graph Pad to obtain IC50 values.

[2] = target: T2, human P2X4 (Homo sapiens, UniProt Q99571); assay: FLIPR assay, human P2X4 1321N1 Astrocytoma Cells; type: cell-based; parameters: expressed in transfected cells; conditions: agonist Mg-ATP at EC80
T2 sequence (Q99571 1-388): T1 sequence (Q99571 1-388)
Protocol: 1321N1 Astrocytoma cells stably expressing human P2X4 or rat P2X4 or mouse P2X4 were plated in Collagen ITO-treated microplate at a seeding density of 10000 cells/well and incubated overnight. P2X4 function was assessed by measuring intracellular calcium changes using the calcium-chelating dye Fluo8-AM (Molecular Devices) on a fluorescent imaging plate reader (FLEX/FLIPR station; Molecular Devices). On the day of the assay, the medium was removed and the cells were incubated for 30 min at […] and 5% CO2 in 30 μL of dye buffer (Hank's balanced salt solution, 10 mM HEPES, 1.8 mM CaCl2, 1 mM MgCl2, 2 mM probenecid, 5 mM D-glucose monohydrate, 5 μM Fluo8-AM, pH=7.4). Compounds diluted in probenecid buffer (Hank's balanced salt solution, 10 mM HEPES, 1.8 mM CaCl2, 1 mM MgCl2, 2 mM probenecid, 5 mM D-glucose monohydrate, pH=7.4) were added in a volume of 10 μL and allowed to incubate for 30 min at room temperature. The final assay DMSO concentration was 0.25%. The agonist, Mg-ATP (Sigma), was added in a volume of 10 μL at a concentration representing the EC80 value. EC80 was determined to be 0.5 μM for human and mouse P2X4 and 5 μM for rat P2X4. The fluorescence was measured for an interval of 120 sec at 2 sec intervals. The excitation and emission wavelengths used to monitor fluorescence were 470-495 nm and 515-575 nm, respectively. The data was analyzed based on the increase in peak relative fluorescence units (RFU) compared to the basal fluorescence and the data was normalized to the agonist control. The compounds were tested in triplicates per plate and mean values were plotted in Excel XLFit to determine IC50 values, percentage of maximal inhibition and the Hill coefficients.

In the case of `NS(=O)(=O)c1cc(NC(=O)Cc2ccccc2Cl)ccc1-n1cc(C(F)(F)F)cn1` [Example 19, 2-(2-Chlorophenyl)-N-{3-sulfamoyl-4-[4-(trifluoromethyl)-1H-pyrazol-1-yl]phenyl}acetamide], the IC50 [1] is reported as 59 nM (2×) and 21 nM and 76 nM and 45 nM, the “Human P2X4 1321N1 Astrocytoma Cells (FLIPR Assay) avg Efficacy” value (from here on “Human P2X4 1321N1 Astrocytoma Cells”) [2] is reported as 60% and the IC50 [2] is reported as 0.057 µM.

`NS(=O)(=O)c1cc(NC(=O)Cc2ccccc2Cl)ccc1-n1cc(F)cn1` [Example 26, 2-(2-Chlorophenyl)-N-[4-(4-fluoro-1H-pyrazol-1-yl)-3-sulfamoylphenyl]acetamide] was tested, and the Emax [1] was 71% and the IC50 [1] was 0.29 µM and 0.182 µM.

With `N#Cc1cnn(-c2ccc(NC(=O)Cc3ccccc3Cl)cc2S(N)(=O)=O)c1` [Example 39, 2-(2-Chlorophenyl)-N-[4-(4-cyano-1H-pyrazol-1-yl)-3-sulfamoylphenyl]acetamide] the Emax [1] was 88%, the IC50 [1] was 0.105 µM and 0.032 µM and 0.071 µM and the “Human P2X4 1321N1 Astrocytoma Cells” value [2] was 83%. It also gave an IC50 [2] of 0.064 µM.

For `NS(=O)(=O)c1cc(NC(=O)Cc2ccccc2Cl)ccc1-c1cnn(C(F)F)c1` [Example 326, 2-(2-Chlorophenyl)-N-{4-[1-(difluoromethyl)-1H-pyrazol-4-yl]-3-sulfamoylphenyl}acetamide], the IC50 [1] was 0.407 µM and 0.167 µM and 0.149 µM and 0.045 µM and 0.049 µM, the “Human P2X4 1321N1 Astrocytoma Cells” value [2] was 80% and the IC50 [2] was 0.046 µM.

With `NS(=O)(=O)c1cc(NC(=O)Cc2ccccc2Cl)cnc1-n1cc(C(F)(F)F)cn1` [Example 380, 2-(2-Chlorophenyl)-N-{5-sulfamoyl-6-[4-(trifluoromethyl)-1H-pyrazol-1-yl]pyridin-3-yl}acetamide] the IC50 [1] was 0.263 µM and 0.251 µM and 0.434 µM and 0.093 µM and 0.05 µM and 0.207 µM.
